Patent US10155743B2, “Glutarimide derivatives, use thereof, pharmaceutical composition based thereon and methods for producing glutarimide derivatives” (OBSCHESTVO S OGRANICHENNOI OTVETSTVENNOSTIYU …, priority 2013, dated 2018)
Like-named read-outs stand apart in the source and are kept apart here.

Columns and labels:
[1] = tested on: mucous membrane of nasal passages, formalin-induced acute rhinosinusitis; experiment: Acute rhinosinusitis rat model (induced by intranasal 7.5% formalin solution); assay type: in vivo, Wistar rats; conditions: rats; for Macroscopic changes in the mucous membrane of nasal passages: Muculent or mucopurulent catarrh (number of animals) / Macroscopic changes in the mucous membrane of nasal passages: Without changes (number of animals): count out of n of the group; for The number of caliciform cells within 1 mm of the mucous membrane of the nasal septum: M ± m
Method: Morphological studies of histologic preparations were conducted with a Leica DMLS light-optical microscope (Leica Microsystems, Germany). Micro-morphometric assessment was performed by using an ocular micrometer on a Leica DMLB microscope.
Acute rhinosinusitis was induced by intranasal administration of 20 μl of 7.5% formalin solution (aqueous solution comprising 40% formaldehyde, 8% methyl alcohol, and 52% water) to each nasal passage of rats.
Administration of formalin to rat nasal passages leads to the dissemination of inflammation to adjacent tissues, resulting in a clinical pattern similar to the symptoms of rhinosinusitis in a human.
After an acclimatization period, the following groups were formed: • intact animals administered intragastrically a saline solution in an amount of 0.2 ml, the induction of acute rhinosinusitis was not performed; • a control group consisted of the animals administered intragastrically a saline solution in an amount of 0.2 ml for 7 days after induction of acute rhinosinusitis; • animals administered intramuscularly dexamethasone at a dose of 0.33 mg/kg for 7 days after induction of acute rhinosinusitis; and • animals administered the tested compounds at a dose of 27 mg/kg for 7 days after induction of acute rhinosinusitis.
Clinical observation of each animal was performed every day at least twice daily.
In the experiment with Wistar rats, the induction of acute rhinosinusitis by administration of a 7.5% formalin solution to nasal passages caused in the control group of animals pronounced pathological changes characterizing the development of an acute inflammation process in the nasal mucous. The caused pathology was characterized by congestion, hyperplasia, focal necrosis of the nasal meatus mucous membrane, an increased number of caliciform cells, pronounced infiltration by mononuclear cells and leucocytes, and mucus hyperproduction by submucosal glands.
The mucous and submucous membranes of both nasal passages (respiratory and olfactory regions) of the experimental animals were subjected to a morphological analysis to evaluate a specific activity of the compounds.
For microscopic examination, the sections were stained with hematoxylin and eosin. Detection of acid mukopolysaccharides, the production of which is increased in an inflammation, was performed by histochemical staining of the preparation with Alcian Blue (pH 2.5). The comparison and histological evaluation of changes were performed versus the group of intact rats.
After slaughter, the gross appearance of inflammation in the nasal passages was studied in each animal. Histological, hystochemical and morphological studies of rats were intended to evaluate the following characteristics of nasal passages: congestion of the mucous membrane; hyperplasia and necrosis of nasal epithelium, the number of caliciform cells within 1 mm of the mucous membrane of the nasal septum, and the character of inflammation.
In this study, the efficiency of the mucociliary system was evaluated by the number of caliciform cells and, as a consequence, microscopic changes in the mucous membrane of the nasal passages.

[2] = tested on: Coxsackie A2-virus (strain HCXV A2); experiment: Antiviral activity against Coxsackie virus in vivo (mortality of infected mice); parameters: species or system white mice; conditions: for inhibition in vivo at 30 mg/kg / mortality at 30 mg/kg: Mus musculus, po; for inhibition in vivo at 30 mg/kg: 168 h, read-out: Protective index (%); for mortality at 30 mg/kg: 360 h, read-out: Total mortality rate, %; for Average expectancy life (days), Vs. control: difference to virus control
[3] = tested on: influenza virus strain A/California/07/09 (H1N1) pdm09; experiment: animal or person; assay type: in vivo, white outbred female mice; conditions: unidentified influenza virus, H1N1, in Mus musculus, po, 336 h, read-out: Mortality rate, %
[4] = tested on: hRV strain (GKV reg. No. 2730); experiment: Antiviral activity against rhinovirus in mice (body weight, lung weight, infectious titer in lungs); assay type: in vivo; conditions: Ribavirin 40 mg/kg
[5] = tested compounds 27 mg/kg for 7 days
[6] = mice, 10LD50 HCXV A2, 30 mg/kg orally once daily for 7 days
[7] = mice, 10LD50 HCXV A2 i.m., 30 mg/kg orally once daily for 7 days from 24 h after infection, 15 days monitoring
[8] = tested compounds 27 mg/kg for 7 days after induction
[9] = dexamethasone 0.33 mg/kg intramuscularly for 7 days

| SMILES | Macroscopic changes in the mucous membrane of nasal passages: Muculent or mucopurulent catarrh (number of animals) [1, 5] | Macroscopic changes in the mucous membrane of nasal passages: Without changes (number of animals) [1, 5] | inhibition in vivo at 30 mg/kg [2, 6] [%] | mortality at 30 mg/kg [2, 7] [%] | Average expectancy life (days), Relative [2, 6] [days] | Average expectancy life (days), Vs. control [2, 6] | also measured |
| --- | --- | --- | --- | --- | --- | --- | --- |
| CC1CC(=O)N(CCc2cnc[nH]2)C(=O)C1 [Compound 2] | 3 | 5 | 40 | 42.9 | 22.4 | +9.5 days | – |
| O=C1CCCC(=O)N1CCc1nc2ccccc2s1 [Compound 7, 1-[2-(1H-benzothiazol-2-yl)ethyl]piperidine-2-dione] | 13 | 5 | – | – | – | – | – |
| O=C1CCCC(=O)N1CCc1ncc[nH]1 [Compound 8] | 3 | 3 | – | – | – | – | The number of caliciform cells within 1 mm of the mucous membrane of the nasal septum [1, 8]: 34.5 ± 0.8 |
| O=C1CCCC(=O)N1CCc1ccsc1 [Compound 12] | – | – | 45 | 40 | 24.9 | +14.2 days | mortality at 30 mg/kg [3]: 60% |
| O=C1CCCC(=O)N1CCc1ccccn1 [Compound 13] | – | – | 36 | 46.7 | 19.0 | +8.3 days | – |
| O=C1CCCC(=O)N1CCN1CCCCC1 [Compound 14] | – | – | – | – | 21.4 | +10.4 days | inhibition in vivo at 30 mg/kg [2]: 36%; mortality at 30 mg/kg [2]: 50% |
| COC(=O)C(Cc1c[nH]c2ccccc12)N1C(=O)CCCC1=O (stereo not shown) [Compound 21] | 5 | 3 | – | – | – | – | – |
| O=C1CCCC(=O)N1CCCn1ccnc1 [Compound 24] | – | – | – | – | – | – | mortality at 30 mg/kg [3]: 55% |
| CCOC(=O)C(Cc1c[nH]c2ccccc12)N1C(=O)CCCC1=O (stereo not shown) [Compound 27] | 4 | 4 | – | – | – | – | – |
| O=C1CC(O)CC(=O)N1CCc1cnc[nH]1 [Compound 28] | 4 | 4 | – | – | – | – | – |
| O=C1CCC(O)C(=O)N1CCc1cnc[nH]1 (stereo not shown) [Compound 29] | – | – | 50 | 35.7 | 26.7 | +13.7 days | – |
| CC(Cc1cnc[nH]1)N1C(=O)CCCC1=O (stereo not shown) [Compound 32] | 5 | 3 | 33 | 42.9 | 22.2 | +10.0 days | – |
| O=C1CCCC(=O)N1CCCc1c[nH]cn1 [Compound 33] | 5 | 3 | – | – | – | – | – |
| O=C(O)C(Cc1ccoc1)N1C(=O)CCCC1=O (stereo not shown) [Compound 44] | 4 | 4 | 55 | 28.6 | 32.3 | +20.1 days | – |
| CC1CCC(=O)N(CCc2c[nH]cn2)C1=O (stereo not shown) [Compound 56] | 3 | 5 | – | – | – | – | – |
| NC1CC(=O)N(CCc2c[nH]cn2)C(=O)C1 [Compound 65] | 4 | 4 | – | – | – | – | – |
| NC1CCC(=O)N(CCc2cnc[nH]2)C1=O (stereo not shown) [Compound 67] | – | – | 50 | 35.7 | 27.0 | +16.2 days | – |
| CC1CCC(=O)N(C(Cc2cnc[nH]2)C(=O)O)C1=O (stereo not shown) [Compound 70] | 4 | 4 | – | – | – | – | – |
| CC1CC(=O)N(C(Cc2cnc[nH]2)C(=O)O)C(=O)C1 (stereo not shown) [Compound 71] | – | – | 44 | 35.7 | 28.6 | +16.4 days | – |
| NC1CCC(=O)N(C(Cc2c[nH]cn2)C(=O)O)C1=O (stereo not shown) [Compound 75] | 5 | 3 | 50 | 35.7 | 27.3 | +14.3 days | – |
| O=C(O)C(Cc1cnc[nH]1)N1C(=O)CCC(O)C1=O (stereo not shown) [Compound 76] | 6 | 2 | – | – | – | – | – |
| O=C(O)C(Cc1ccccn1)N1C(=O)CCCC1=O (stereo not shown) [Compound 83] | – | – | – | – | – | – | mortality at 30 mg/kg [3]: 45% |
| O=C1CCCC(=O)N1CCC1CNCCO1 (stereo not shown) [Compound 89] | – | – | 27 | 53.3 | 17.7 | +7.0 days | – |
| O=C1CCCC(=O)N1CCC1COCCN1 (stereo not shown) [Compound 90] | – | – | 50 | 35.7 | 25.9 | +15.1 days | – |
| O=C1CCCC(=O)N1CCc1nc2ccccc2[nH]1 [Compound 124] | 8 | 4 | – | – | – | – | The number of caliciform cells within 1 mm of the mucous membrane of the nasal septum [1, 8]: 37.6 ± 1.4 |
| C[C@@H]1C[C@H]2[C@@H]3CCC4=CC(=O)C=C[C@]4(C)[C@@]3(F)[C@@H](O)C[C@]2(C)[C@@]1(O)C(=O)CO [Dexamethasone, dexamethasone, reference compound] | – | – | – | – | – | – | The number of caliciform cells within 1 mm of the mucous membrane of the nasal septum ([1]; dexamethasone 0.33 mg/kg intramuscularly for 7 days after induction): 34.8 ± 2.1; Macroscopic changes in the mucous membrane of nasal passages: Muculent or mucopurulent catarrh (number of animals) [1, 9]: 3; Macroscopic changes in the mucous membrane of nasal passages: Without changes (number of animals) [1, 9]: 3 |
| NC(=O)c1ncn([C@@H]2O[C@H](CO)[C@@H](O)[C@H]2O)n1 [Ribavirin, reference compound] | – | – | – | – | – | – | Suppression of the reproduction of the virus in mouse lungs, Δ lg, Day 2 after infection [4]: 0.88 ± 0.5 Δ lg; Suppression of the reproduction of the virus in mouse lungs, Δ lg, Day 3 after infection [4]: 2.18 ± 0.26 Δ lg; Suppression of the reproduction of the virus in mouse lungs, Δ lg, Day 4 after infection [4]: 2 ± 0.16 Δ lg; Infectious titer of the virus in lungs, lg TCID50, Day 2 after infection ([4]; Hela cell culture): 3.13 ± 0.5 lg TCID50; Infectious titer of the virus in lungs, lg TCID50, Day 3 after infection ([4]; Hela cell culture): 0.33 ± 0.26 lg TCID50; Infectious titer of the virus in lungs, lg TCID50, Day 4 after infection ([4]; Hela cell culture): 0.2 ± 0.16 lg TCID50; Body weight of the mice after infection with hRV, day 0 ([4]; day 0): 7.66 ± 0.89; Body weight of the mice after infection with hRV, day 1 ([4]; day 1 after infection): 8.81 ± 5.94; Body weight of the mice after infection with hRV, day 2 ([4]; day 2 after infection): 13.87 ± 5.11; Lung weight of the mice after infection with hRV, day 2 ([4]; day 2 after infection): 152.6 ± 4.55; Body weight of the mice after infection with hRV, day 3 ([4]; day 3 after infection): 13.11 ± 1.37; Lung weight of the mice after infection with hRV, day 3 ([4]; day 3 after infection): 130.1 ± 5.4; Body weight of the mice after infection with hRV, day 4 ([4]; day 4 after infection): 13.37 ± 1.22; Lung weight of the mice after infection with hRV, day 4 ([4]; day 4 after infection): 120.5 ± 3.37 |
